One molecule from article PMC4311240, “Rationally Designed Peptidomimetic Modulators of Aβ Toxicity in Alzheimer's Disease” (Scientific Reports, 2015) can be followed below.

Data set [1] deals with T1, Aβ42 (Homo sapiens, UniProt P05067).
T1 construct: Aβ42 peptide (0.25 mg) (Calbiochem, Merck) was dissolved in hexafluoro-2-propanol; purchased Calbiochem, Merck
The data set can be described thus: ThT fluorescence inhibition assay of Aβ42 fibrillization. The data set is classed as biochemical. Conditions: Aβ42 20 μM, Aβ42:inhibitor 1:2 (40 μM), inhibitor added at 0 h, four days at 37°C, 10 mM PBS pH 7.4, n = 3; read-out: inhibition efficiency (reduction in the fluorescence intensity of ThT). On the procedure: (§1) ThT assay has been widely used to monitor the transformation of Aβ42 monomers to fibrillar aggregates. We employed ThT assay to evaluate the ability of our peptidomimetic candidates to either prevent fibril assembly (inhibition) or to break down preformed fibrils of Aβ42 (dissolution). For the inhibition assay all the peptidomimetics (P2, P3, P4 and P5) along with control peptide P1 were added at 0 h of the experiment, whereas for the aggregates reversal (dissolution) assay they were added to Aβ42 fibrillar aggregates grown for 2 days. Once they had been incubated together, Aβ42/inhibitors were analyzed using ThT by measuring the fluorescence changes. First, we performed concentration-dependent experiments where different ratios of P1, P2, P3, P4 and P5 were incubated with fixed concentrations of Aβ42 (20 μM) and its aggregates to study their effect on both inhibition and reversal assay, respectively. Experiments were performed at stoichiometric ratios (Aβ42/inhibitor) of 1:0.2, 1:1, and 1:2 with the fixed concentration of Aβ42 of 20 μM. […] However, the efficiencies of P4 and P5 were only marginally better in inhibition assay compared to reversal assay with a difference of about 15%.
(§2) Fluorescence spectral measurements were carried out using Perkin Elmer Model LS 55 fluorescence spectrophotometer. […] A ThT concentration of 5–10 µM was used for amyloid fibrillization and dissolution assay based on the Aβ42 fibrillar concentration.
(§3) Prior to the experiment, P1, P2, P3, P4 and P5 were dissolved in HFIP and were evaporated under a stream of dry nitrogen. The dried samples were re-suspended in 10 mM PBS buffer at pH 7.4. An aliquot of Aβ42 peptide was then added to the solution with or without one of the inhibitor P1, P2, P3, P4 and P5. The mixtures were vortexed for approximately 30 s and then incubated at 37°C for 2–3 days without shaking. The final concentration of Aβ42 in the mixture was 20 μΜ. For a dissolution experiment, Aβ42 was incubated alone for 2 days to allow fibrils to form. An aliquot of the formed fibrils in 10 mM PBS buffer was then added to the inhibitor peptidomimetics. The amount of fibrils remaining intact was assayed using that fluorescence, CD measurements and transmission electron microscopy as described below.

Data set [2] addresses T2, Aβ42 fibrillar aggregates (Homo sapiens, UniProt P05067).
T2 construct: Aβ42 peptide (0.25 mg) (Calbiochem, Merck) was dissolved in hexafluoro-2-propanol; purchased Calbiochem, Merck
The data set can be described thus: ThT fluorescence reversal (dissolution) assay of preformed Aβ42 fibrillar aggregates. The data set is classed as biochemical. The note with it: Aβ42 fibrillar aggregates grown for 2 days, 20 μM, 1:2 stoichiometry, day 6, 37°C, n = 3. On the procedure: as §1
Aβ42 peptide (0.25 mg) (Calbiochem, Merck) was dissolved in hexafluoro-2-propanol (HFIP, 0.2 mL) and incubated at room temperature for 1 h. HFIP was then removed by the flow of nitrogen and further dried under vacuum. HFIP-treated Aβ42 was then dissolved in 10 mM PBS buffer to a concentration of 200 μM at pH 7.4. The solution was incubated at 37°C for 48 h with constant shaking for fibril formation. The formation of Aβ42 fibrillar aggregates was confirmed by ThT fluorescence, CD measurements and electron microscopy. For oligomers, HFIP-treated Aβ42 dissolved in 10 mM PBS buffer and incubated at 4°C for 24 h[44].
as §2, §3

Data set [3] can be described thus: Serum stability assay. The data set is classed as in vitro ADME. Conditions: human blood serum (centrifuged to remove lipid), 37°C, 24 h, RP-HPLC at 254 nm. On the procedure:
The impact of N-terminal modification (P2 and P3) and Sr (N-methylglycine) substitution (P4 and P5) in P1 were investigated for their proteolytic stability towards blood plasma proteases. The assay involved the incubation of peptides (50 μM) with blood serum at 37°C for a period of 24 h and assessing the amount of intact peptides at different time points (0, 3, 6, 12 and 24 h) using RP-HPLC. […] Remarkably, P4 and P5 were very stable towards blood plasma proteases in comparison to the other peptides (P1, P2 and P3). […] Proteolytic enzymes generally recognize the specific amide bond between the natural amino acids and cleave them. […] On the other hand, P4 and P5 with an unnatural amino acid (Sr: N-methylglycine) in alternate positions were not recognized by the blood plasma proteases, resulting in their high blood plasma protease stability.
Figure 6 Serum stability of inhibitors. Inhibitors (50 μM) (P1-P5)were incubated in human blood serum (HBS) and were analyzed at different time points over a duration of 24 h to determine the percentage of intact inhibitor. […] Each experiment was repeated three times (n = 3). Error bars represent the standard deviation (SD) of the […] measurement.
Human blood serum (HBS) was used to determine serum stability of the inhibitors. The HBS was centrifuged to remove the lipid component, and the supernatant was incubated at 37°C. 50 Μm of each inhibitor (P1, P2, P3, P4 and P5) was incubated in HBS and then 40 μL triplicate aliquots were removed at 0, 1, 3, 6, 10, 16, and 24 h. Each serum sample was quenched with 40 μL of 6 M urea and incubated at 4°C for 10 min. Then, each serum sample was quenched with 40 μL of trichloroacetic acid (20%) and incubated for another 10 min at 4°C to precipitate the serum proteins. The samples were centrifuged for 10 min, and […] of the supernatant was analyzed on RP-HPLC using a linear gradient of solvent B (0.3 mL/min flow rate). The control samples containing equivalent amounts of inhibitors in PBS buffer were subjected to the same treatment procedure. The percentage recovery of inhibitors was detected by integration at 254 nm[45].

For data set [4], the system named is trypsin. Description: Protease stability assay, trypsin. The data set is classed as in vitro ADME. Conditions: 100 mM NH4HCO3 buffer pH 8, 50 μM, 37°C, 24 h, RP-HPLC. On the procedure:
(§4) Enzymes trypsin and pepsin are well-known to cleave the C-terminal of lysine and amide bond involving aromatic amino acids, respectively. Peptides were incubated with both the enzymes at 37°C for 24 h, and the amount of the residual intact peptide was monitored in each case at different time points (0, 3, 6, 12 and 24 h) using RP-HPLC. […] Overall, the stability assays with blood plasma and proteolytic enzymes led to similar conclusions and confirmed the stability, order P5>P4≫P3≈P2>P1.
(§5) Preliminary stability assays were performed using the enzymes pepsin and trypsin. For all assays, peptides were incubated with the enzyme at 37°C for 24 h. All digestion assay data were analyzed by RP-HPLC. Trypsin and pepsin stocks were prepared in 100 mM ammonium bicarbonate (NH4HCO3) buffer (pH 8) and 100 mM formic acid buffer (pH 2), respectively. All the peptides/peptidomimetics (P1, P2, P3, P4 and P5) were incubated with trypsin and pepsin enzymes in 100 mM NH4HCO3 buffer (pH 8) and formic acid buffer (pH 2), respectively, at 37°C. The trypsin reactions were halted with 0.05% formic acid, and the pepsin reactions were halted with 100 mM NH4HCO3. Then the samples were analyzed by RP-HPLC using a linear gradient of solvent B (0.3 mL/min flow rate); similar data points were collected at various time points between 0 and 24 h (1 h, 3 h, 6 h, 12 h and 24 h) during incubation and analyzed in triplicates. The percentages of recovered peptide/peptidomimetics were detected by integration at 254 nm[46].
(§6) Figure S6. Stability towards protease enzymes pepsin and trypsin. P1, P2, P3, P4 and P5 ([…]) were incubated in with enzymes pepsin a and trypsin b in 100 mM formic acid buffer (pH 2) and 100 mM NH4HCO3 buffer (pH 8) respectively. Percentage of intact peptide in each case was monitored at different time points for a duration of 24 h. P1, P2 and P3 degraded with time, […]
(§7) (1 picture or pasted object on this page, not shown here)

The subject of data set [5] is pepsin. The data set can be described thus: Protease stability assay, pepsin. Conditions: 100 mM formic acid buffer pH 2, 50 μM, 37°C, 24 h, RP-HPLC. The data set is classed as in vitro ADME. As to the method:
as §4, §5, §6, §7

T2 sequence (P05067 672-713 limits assumed): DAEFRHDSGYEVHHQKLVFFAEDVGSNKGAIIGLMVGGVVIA
T1 sequence (P05067 672-713 limits assumed): as above

Regarding `CC(C)C[C@H](NC(=O)[C@@H](N)CCCCN)C(=O)N[C@H](C(=O)N[C@@H](Cc1ccccc1)C(=O)N[C@@H](Cc1ccccc1)C(N)=O)C(C)C` [P1, reference compound], the inhibition at 40 µM in data set [1] is 20%. The “dissolution efficiency, fibril reversal assay (ThT)” value in data set [2] is on record as 20%. The half-life at 50 μM in data set [3] (n = 3) was about 180 min. For the same molecule, the metabolised at 24 h, 50 μM in data set [3] (n = 3, read-out: peptide degraded at 24 h in serum) was found to be 80%. In addition, the “stability towards trypsin” value in data set [4] is “less stable”. The “stability towards pepsin” value in data set [5] is given as “less stable”.
